In patent US5444042A, “Method of treatment of neurodegeneration with calpain inhibitors” (Cortex Pharmaceuticals, priority 1994, dated 1995):
Where a SMILES comes first, the peptide text is derived from it. [ ]: non-standard residue; d: D form. The star is where a group is joined. Nle = CCCC[C@H](N)C(=O)O; Cbz = O=C(OCc1ccccc1)*; CH2Cl = ClC*

Columns and labels:
[1] = tested on: rats injected with kainic acid; assay: Kainate-induced behavioral symptoms and convulsions (Example 8A); type: in vivo, rat; settings: 12 mg/kg kainic acid i.p., 4.6 mg calpain inhibitor in DMSO i.p., observed six hours
Description: Rats (male Sprague-Dawley, 200±5 gms) were injected intraperitoneally with 12 mg/kg kainic acid in saline vehicle and ether 2001 μl DMSO (dimethylsulfoxide) or 4.6 mg calpain inhibitor dissolved in the same volume of DMSO.

[2] = tested on: N18-RE-105 cells; assay: Glutamate-induced cell death, MTT conversion (Example 5); type: cell-based; settings: 5 mM glutamate, inhibitor 3 μg/ml, 19 hours
Description: Stock cultures of N18-RE-105 cells were maintained in Dulbecco's modified Eagle's medium (DMEM) containing 10% fetal bovine serum (FBS) and supplemented with hypoxanthine, aminopterin and thymidine (HAT). Subconfluent cultures were split and plated into 96-well plates. Twenty-four hours after plating the cells were exposed to fresh media containing glutamate and various concentrations of Calpain inhibitors. Control cells were not treated with glutamate. Conversion of MTT was measured 19 hours later as described. Nineteen hours after the onset of exposure, cell viability was quantitated by measuring the extent to which the cells convert 3(4,5-dimethylthiazol-2-yl)-2-5-diphenyltetrazolium bromide (MTT) to a blue formazan product, which occurs in the mitochondria of living but not dead cells (Pauwels et al., 1988). A higher absorbance is indicative of greater cell viability.

[3] = tested on: hippocampal slices; assay: Hippocampal slice evoked potential recovery after anoxia (Example 7B); type: cell-based, rat
Description: As in Example 7A, hippocampal slices (400 μm) were prepared from Sprague Dawley rats (6-7 weeks) and maintained in an interface chamber at 35° C. using conventional techniques, i.e. the lower surface of the slice received a constant perfusion (0.5 ml/min) of an artificial cerebrospinal fluid (ACSF), while the upper surface was exposed to a moist atmosphere of O2 :CO2 (95%:5%) exchanged at a rate of 2 L/min. The ACSF medium contains (in mM): NaCl (124), KCl (3), KHPO4 (1.25), MgSO4 (2.5), CaCl2 (3.4), NaHCO3 (26) and D-Glucose (10). Field excitatory post-synaptic responses were recorded from stratum radiatum of CA1b in response to stimulation of Schaffer-commissural fibers in CA1a or CA1c. The depth of the recording electrode was optimized and evoked responses were collected at a rate of one evoked response every 30 seconds.
After establishing a stable baseline of evoked responses (approximately 10 minutes), ACSF containing Calpain Inhibitor was washed into the chamber and slices were incubated for a period of one hour. After incubation, evoked responses were again recorded and the change in the amplitude of the responses from baseline levels was noted. No effect of the inhibitors tested on baseline evoked responses was observed.
For anoxia experiments, incubation in the drug-containing medium was followed by replacement of the O2 :CO2 (95%:5%) atmosphere with N2 :CO2 (95%:5%). Slices were exposed to this anoxic environment until disappearance of the pre-synaptic fiber volley and for two minutes (severe anoxia) longer (total time in anoxic environment approximately 7-8 minutes in control case). Effects of Calpain Inhibitors on the functional recovery of the slices after the anoxic episode were then measured. Recovery of the evoked potential (EPSP) slope and amplitude by the drug treated slices can be compared to control slices to determine the relative efficacy of various Calpain Inhibitors.

[4] = tested on: hippocampal slices; assay: Hippocampal slice survival after 10 min anoxia (Example 7A); type: cell-based, rat
Description: Hippocampal slices (400 um) were prepared from Sprague Dawley rats (6 to 7 weeks) and maintained in an interface chamber at 35° C. using conventional techniques, i.e., the lower surface of the slice received a constant perfusion (0.5 ml/min) of ACSF, while the upper surface was exposed to a moist atmosphere of O2 :CO2 (95%:5%) exchanged at a rate of 2 L/min. The ACSF medium contains (in mM): NaCl (124), KCl (3), KHPO4 (2.5), CaCl (3.4), NaHCO3 (26) and D-Glucose (10). Field excitatory post-synaptic responses were recorded from stratum radiatum of CAlb in response to stimulation of Schaffer-commissural fibers in CAla or CAlc. The depth of the recording electrode was optimized and evoked responses were collected at a rate of one evoked response every 30 seconds.
For the initial screening procedure, 14 to 16 slices are harvested from the hippocampus of a single rat and placed in a common ACSF bath. Each slice is tested in sequence to determine the magnitude of its pre-anoxic evoked response. Five stimulation pulses (each 0.1 ms (millisecond) in duration) were presented over a 15 second interval. The largest evoked response was noted and recorded for each slice.
After the one hour drug incubation period, the oxygen-enriched atmosphere of the chamber was made anoxic by substituting nitrogen for oxygen (N2 =95%; CO^2 =5%). The slices were retained in this anoxic environment for 10 minutes, following which the oxygen-enriched atmosphere (O^2 =95%; CO2 =5%) was reestablished.
The slices were given the opportunity to recover for 30 minutes following reoxygenation whereupon each was stimulated and the maximum evoked potential determined, as described above during the pre-anoxia period. Those slices which, after anoxia, produced a maximum evoked potential of greater than 50% of that observed prior to anoxia were defined as surviving slices.

[5] = tested on: Calpain in crude brain extracts; assay: Ca2+-stimulated spectrin proteolysis in crude brain extracts (Example 2); type: biochemical
Procedure, shortened: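 Brain tissue was homogenized in 10 mM Tris pH 7.4, 0.32 M sucrose, 1 mM EGTA and 1 mM DTT, and nuclei and debris were removed. Calpain activity was scored as Ca^2+-stimulated proteolysis of endogenous spectrin.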

[6] = tested on: Calpain II; assay: Kapp/[I] progress curve method, Calpain II (Table 1C); type: biochemical; set-up: unit not given here; settings: Rabbit Calpain II, Suc-leu-tyr-amidomethylcoumarin
Procedure, shortened: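 Irreversible inactivation of calpains I and II followed with Suc-Leu-Tyr-AMC substrate; papain assayed with benzoyl-Arg-4-nitroanilide. Kapp derived by the Tian–Tsou progress-curve method from product formed at infinite time, known substrate and inhibitor concentrations, Vmax and Km; values reported as Kapp/[I].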

[7] = tested on: Calpain within platelets; assay: Platelet membrane permeation assay, spectrin proteolysis (Examples 4A, 4B); type: cell-based, rat; settings: 100 μM, A23187 1 μM
Procedure, shortened: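 Rat (Sprague-Dawley) platelets at 10^7 cells/ml in HEPES buffer pH 7.4, preincubated 5 min with inhibitor, then 5 min with 1 μM A23187 to activate calpain. Spectrin proteolysis assessed by SDS-PAGE and anti-spectrin immunoblot, quantified by densitometry.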

[8] = target: T1, Calpain I (Homo sapiens, UniProt P07384); assay: Kapp/[I] progress curve method, human Calpain I (Table 1C); type: biochemical; settings: Suc-leu-tyr-amidomethylcoumarin
T1 sequence (P07384 1-714): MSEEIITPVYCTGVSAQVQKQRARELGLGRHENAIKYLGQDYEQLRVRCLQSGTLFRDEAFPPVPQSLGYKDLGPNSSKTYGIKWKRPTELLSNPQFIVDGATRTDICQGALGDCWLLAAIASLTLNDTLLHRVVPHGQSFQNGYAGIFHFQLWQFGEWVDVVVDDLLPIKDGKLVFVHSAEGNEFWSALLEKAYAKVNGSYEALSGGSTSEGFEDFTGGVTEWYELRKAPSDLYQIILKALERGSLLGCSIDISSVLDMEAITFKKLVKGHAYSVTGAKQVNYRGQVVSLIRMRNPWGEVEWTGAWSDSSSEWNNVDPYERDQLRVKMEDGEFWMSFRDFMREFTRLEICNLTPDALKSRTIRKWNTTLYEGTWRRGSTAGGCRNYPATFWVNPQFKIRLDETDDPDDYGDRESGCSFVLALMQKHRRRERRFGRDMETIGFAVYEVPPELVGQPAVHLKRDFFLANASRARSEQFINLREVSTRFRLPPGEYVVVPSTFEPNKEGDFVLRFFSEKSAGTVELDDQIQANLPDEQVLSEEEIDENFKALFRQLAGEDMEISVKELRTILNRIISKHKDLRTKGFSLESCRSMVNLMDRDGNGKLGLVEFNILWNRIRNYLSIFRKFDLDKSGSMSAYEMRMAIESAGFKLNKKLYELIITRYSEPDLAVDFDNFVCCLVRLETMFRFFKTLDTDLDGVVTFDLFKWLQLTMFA
T1 sequence (P04632 1-268 partner): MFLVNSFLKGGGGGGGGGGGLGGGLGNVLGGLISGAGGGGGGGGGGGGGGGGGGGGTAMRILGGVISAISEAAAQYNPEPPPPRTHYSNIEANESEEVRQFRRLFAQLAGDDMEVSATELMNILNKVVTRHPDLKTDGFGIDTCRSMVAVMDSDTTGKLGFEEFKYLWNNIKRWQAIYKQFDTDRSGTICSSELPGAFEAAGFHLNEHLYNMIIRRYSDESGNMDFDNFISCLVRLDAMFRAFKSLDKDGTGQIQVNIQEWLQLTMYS
Description: The Halo-Ketone Peptides, like the substituted isocoumarins, are irreversible inhibitors of Calpain. We determined the Kapp /[I] values for various members of this class of compounds against Calpains I and II. For comparison, we also determined these values against the additional thiol proteases Papain and Cathepsin B for at least one Halo-Ketone Peptide.
We assayed Calpain I and II using Suc-leu-tyr-amidomethylcoumarin. Papain was assayed using benzoyl-arg-4-nitroanilide, and Cathepsin B (bovine) was assayed using CBZ-lys-4-nitrophenyl ester. We followed the progress curve method of Tian and Tsou, Biochemistry, 21:1028-1032 (1982), the disclosure of which is hereby incorporated by reference, to derive kinetic data. Briefly, this method makes use of the equation: [formula] where [P.infin. ] represents the concentration of product formed at a time approaching infinity, A is the Kapp in the presence of substrate (S), K is the Michaelis constant and [Y] is the concentration of the inhibitor. Since [S] and [Y] are known and V and K can be determined, Kapp can be readily determined.

| Structure (SMILES) | kainate-induced behavioral symptoms and convulsions (FIG. 7) [1] | blue formazan product relative to control without glutamate [2] | % Recovery of synaptic transmission after anoxia ([3]; Concentration 200, ten minutes anoxia) | period of anoxia required to produce fiber volley disappearance (FIG. 6) ([3]; hippocampal slices) | protection of slices from anoxia (FIG. 3) ([4]; 10 minutes anoxic atmosphere) | Survival of slices after ten minutes anoxia ([4]; Dose 200 μM, incubation 2 hours) | inhibition in the system of Example 2 ([5]; concentration not given) | Kapp/[I] CII [6] | inhibition of Calpain within platelets [7] | inhibition of spectrin proteolysis in crude brain extracts ([5]; 100 μM) | Kapp/[I] CI [8] |
| --- | --- | --- | --- | --- | --- | --- | --- | --- | --- | --- | --- |
| CCCC[C@@H](C=O)NC(=O)[C@H](CC(C)C)NC(=O)[C@H](CC(C)C)NC(C)=O [CI1, Ac-Leu-Leu-Nle-H, reference compound] (Ac-Leu-Leu-[Nle]-aldehyde) | incidence and severity of convulsions was reduced | protect N18-RE-105 cells against glutamate toxicity | 35% | does not significantly lengthen the period of anoxia required to suppress electrical activity | protected from the effects of anoxia | 53% | showed inhibition |  |  |  |  |
| CC(C)CC(NC(=O)OCc1ccccc1)C(=O)NC(Cc1ccccc1)C(=O)CCl (stereo not drawn) [Z-Leu-Phe-CH2 Cl] (Cbz-Leu-Phe-CH2Cl; configuration not given here) |  |  |  |  |  |  |  | 585000 | significant inhibition | significant inhibition | 225000 |
